{
  "source": "patent US20240034736A1",
  "about": "“HSD17B13 INHIBITORS AND USES THEREOF” (FL2022-001, Inc., priority 2020, published 2024)",
  "data": [
    {"biological_target": "Recombinant human HSD17B13 enzyme (Homo sapiens (Human), UniProt Q7Z5P4)", "sequence (Q7Z5P4 20-300)": "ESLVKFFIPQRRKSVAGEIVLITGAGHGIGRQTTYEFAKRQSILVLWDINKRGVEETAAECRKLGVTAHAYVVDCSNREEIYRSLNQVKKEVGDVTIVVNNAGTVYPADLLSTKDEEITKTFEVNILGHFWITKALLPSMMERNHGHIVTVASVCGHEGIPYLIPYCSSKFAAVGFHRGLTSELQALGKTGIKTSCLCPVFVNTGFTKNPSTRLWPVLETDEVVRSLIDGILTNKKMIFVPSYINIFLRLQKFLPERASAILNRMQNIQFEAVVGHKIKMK", "experiment": "HSD17b13 NAD(P)H-Glo Biochemical Assay", "settings": "50 uM estradiol, 1 mM NAD+; read-out: HSD17β13 IC50", "description": "(§1) Recombinant human HSD17B13 enzyme. Substrate: estradiol (Sigma β-Estradiol E8875), 100 mM in DMSO. […] Assay buffer final concentration: 20 mM Tris pH7.4 with 0.002% Tween-20 and 0.02% BSA. […] Enzymatic activity detected by NAD(P)H-Glo™ Detection System (Promega G9062).\n(§2) Inhibitor compounds were serially diluted in DMSO and then further diluted in assay buffer to a 10× concentration consisting of 1% DMSO.\n(§3) HSD17b13 enzyme was diluted in 1× assay buffer to the desired enzyme concentration based on the specific activity of the enzyme lot. 20 uL of diluted enzyme was added to each well along with 2.5 uL of 10× inhibitor solution. Assay plate was incubated at RT for 20 minutes, and then 2.5 uL of a 10× substrate/cofactor mix was added to each well for a final concentration of 50 uM estradiol and 1 mMNAD+. Assay plate was incubated at 37° C. for 3 hours. NAD(P)H-Glo™ Detection System reagents were prepared according to manufacturer's specifications, and 25 uL was added to each well. After incubating for 1 hour at RT, luminescence was measured.", "units": {"IC50": "nM"}, "values": [
      {"smiles": "CS(=O)(=O)C1CCN(c2ccc3c(cnn3-c3cc(O)c(F)c(F)c3)c2)CC1", "note": "[Compound 21.06, 2,3-Difluoro-5-(5-(4-(methyl-sulfonyl)piperidin-1-yl)-1H-indazol-1-yl)phenol]", "IC50": "1000 to 30000"},
      {"smiles": "Cc1nn(-c2cc(C(F)(F)F)c(F)c(O)c2F)c2cc(Cl)c(N(C)C3CCOCC3)nc12", "note": "[Compound 19.115, 3-(6-Chloro-3-methyl-5-(methyl(tetrahydro-2H-pyran-4-yl)amino)-1H-pyrazolo[4,3-b]pyridin-1-yl)-2,6-difluoro-5-(trifluoromethyl)phenol]", "IC50": "< 100"},
      {"smiles": "Cc1nn(-c2cc(C(F)(F)F)c(F)c(O)c2F)c2cnc(N3CCN(S(C)(=O)=O)CC3)cc12", "note": "[Compound 19.45, 2,6-Difluoro-3-(3-methyl-5-(4-(methylsulfonyl)piperazin-1-yl)-1H-pyrazolo[3,4-c]pyridine-1-yl)-5-(trifluoromethyl)phenol]", "IC50": "100 to 1000"},
      {"smiles": "CN(c1ccc2c(c1)c(Cl)nn2-c1cc(C(F)(F)F)c(F)c(O)c1F)C1CCOCC1", "note": "[Compound 19.87, 3-(3-Chloro-5-(methyl(tetrahydro-2H-pyran-4-yl)amino)-1H-indazol-1-yl)-2,6-difluoro-5-(trifluoromethyl)phenol]", "IC50": "100 to 1000"},
      {"smiles": "CN(c1ccc2c(cnn2-c2cc(C(F)(F)F)c(F)c(O)c2F)c1)C1CCOCC1", "note": "[Compound 19.70, 2,6-Difluoro-3-(5-(methyl(tetrahydro-2H-pyran-4-yl)amino)-1H-indazol-1-yl)-5-(trifluoromethyl)phenol]", "IC50": "< 100"},
      {"smiles": "CS(=O)(=O)N1CCN(c2cc3cnn(-c4ccc(Cl)c(O)c4)c3cn2)CC1", "note": "[Compound 19.14, 2-Chloro-5-(5-(4-(methylsulfonyl)piperazin-1-yl)-1H-pyrazolo[3,4-c]pyridine-1-yl)phenol]", "IC50": "1000 to 30000"},
      {"smiles": "CS(=O)(=O)N1CCN(c2cc3cnn(-c4cc(C(F)(F)F)cc(O)c4F)c3cn2)CC1", "note": "[Compound 19.06, 2-Fluoro-3-(5-(4-(methylsulfonyl)piperazin-1-yl)-1H-pyrazolo[3,4-c]pyridine-1-yl)-5-(trifluoromethyl)phenol]", "IC50": "100 to 1000"},
      {"smiles": "CS(=O)(=O)N1CCN(c2cc3cn(-c4ccc(F)c(O)c4F)nc3cn2)CC1", "note": "[Compound 19.08, 2,6-Difluoro-3-(5-(4-(methylsulfonyl)piperazin-1-yl)-2H-pyrazolo[3,4-c]pyridine-2-yl)phenol]", "IC50": "1000 to 30000"},
      {"smiles": "Oc1cc(-n2ncc3cc(Nc4ccc(O)c(Cl)c4)ccc32)ccc1F", "note": "[Compound 23, 2-Chloro-4-((1-(4-fluoro-3-hydroxyphenyl)-1H-indazol-5-yl)amino)phenol]", "IC50": "100 to 1000"},
      {"smiles": "CS(=O)(=O)N1CCCN(c2ccc3c(cnn3-c3cc(O)c(F)c(F)c3)c2)CC1", "note": "[Compound 21.26, 2,3-Difluoro-5-(5-(4-(methyl-sulfonyl)-1,4-diazepan-1-yl)-1H-indazol-1-yl)phenol]", "IC50": "100 to 1000"},
      {"smiles": "CS(=O)(=O)N1CCN(c2ccc3c(cnn3-c3cc(O)cc(C(F)(F)F)n3)c2)CC1", "note": "[Compound 31.02, 2-(5-(4-(Methylsulfonyl)-piperazin-1-yl)-1H-indazol-1-yl)-6-(trifluoromethyl)-pyridin-4-ol]", "IC50": "1000 to 30000"},
      {"smiles": "CCN(c1cc2c(C)nn(-c3cc(C(F)(F)F)c(F)c(O)c3F)c2cn1)C1CCOCC1", "note": "[Compound 19.54, 3-(5-(Ethyl(tetrahydro-2H-pyran-4-yl)amino)-3-methyl-1H-pyrazolo[3,4-c]pyridine-1-yl)-2,6-difluoro-5-(trifluoromethyl)phenol]", "IC50": "< 100"},
      {"smiles": "COc1ccc(-c2ccc3c(cnn3-c3cc(O)c(F)c(C(F)(F)F)c3)c2)cc1Cl", "note": "[Compound 1.02, 5-(5-(3-Chloro-4-methoxyphenyl)-1H-indazol-1-yl)-2-fluoro-3-(trifluoromethyl)phenol]", "IC50": "100 to 1000"},
      {"smiles": "Oc1ccc(-c2ccc3c(cnn3-c3ccc(F)c(O)c3F)c2)cc1Cl", "note": "[Compound 8, 3-(5-(3-Chloro-4-hydroxyphenyl)-1H-indazol-1-yl)-2,6-difluorophenol]", "IC50": "100 to 1000"},
      {"smiles": "Oc1cccc(-c2ccc3c(cnn3-c3ccc(F)c(O)c3)c2)c1", "note": "[Compound 4.03, 2-Fluoro-5-(5-(3-hydroxyphenyl)-1H-indazol-1-yl)phenol]", "IC50": "100 to 1000"},
      {"smiles": "CS(=O)(=O)N1CCN(c2cc3cnn(-c4cc(O)c(Cl)c(F)c4)c3cn2)CC1", "note": "[Compound 19.17, 2-Chloro-3-fluoro-5-(5-(4-(methylsulfonyl)piperazin-1-yl)-1H-pyrazolo[3,4-c]pyridine-1-yl)phenol]", "IC50": "1000 to 30000"},
      {"smiles": "Cc1nn(-c2cc(C(F)(F)F)c(F)c(O)c2F)c2cnc(N3CCN(c4cnn(C)c4)CC3)cc12", "note": "[Compound 19.64, 2,6-Difluoro-3-(3-methyl-5-(4-(1-methyl-1H-pyrazol-4-yl)piperazin-1-yl)-1H-pyrazolo[3,4-c]pyridin-1-yl)-5-(trifluoromethyl)phenol]", "IC50": "100 to 1000"},
      {"smiles": "Oc1ccc(-c2ccc3c(cnn3-c3cc(O)c(F)c(F)c3F)c2)cc1Cl", "note": "[Compound 1.05, 5-(5-(3-Chloro-4-hydroxyphenyl)-1H-indazol-1-yl)-2,3,4-trifluorophenol]", "IC50": "100 to 1000"},
      {"smiles": "Oc1ccc(-c2ccc3c(cnn3-c3cc(O)c(F)c(F)c3)c2)cc1Cl", "note": "[Compound 3.03, 5-(5-(3-Chloro-4-hydroxyphenyl)-1H-indazol-1-yl)-2,3-difluorophenol]", "IC50": "100 to 1000"},
      {"smiles": "NC(=O)c1ccc(-c2ccc3c(cnn3-c3ccc(F)c(O)c3)c2)c(Cl)c1", "note": "[Compound 13, 3-Chloro-4-(1-(4-fluoro-3-hydroxyphenyl)-1H-indazol-5-yl)benzamide]", "IC50": "100 to 1000"},
      {"smiles": "Oc1cc(-n2ncc3cc(N4CCC(O)CC4)ccc32)ccc1F", "note": "[Compound 20.01, 1-(1-(4-Fluoro-3-hydroxy-phenyl)-1H-indazol-5-yl)-piperidin-4-ol]", "IC50": "1000 to 30000"},
      {"smiles": "CNC(=O)c1nn(-c2cc(C(F)(F)F)c(F)c(O)c2F)c2ccc(N(C)C3CCOCC3)cc12", "note": "[Compound 19.112, 1-(2,4-Difluoro-3-hydroxy-5-(trifluoromethyl)phenyl)-N-methyl-5-(methyl(tetrahydro-2H-pyran-4-yl)amino)-1H-indazole-3-carboxamide]", "IC50": "1000 to 30000"},
      {"smiles": "CS(=O)(=O)N1CCC(Oc2ccc3c(cnn3-c3cc(O)c(F)c(F)c3)c2)CC1", "note": "[Compound 25.01, 2,3-Difluoro-5-(5-((1-(methyl-sulfonyl)piperidin-4-yl)oxy)-1H-indazol-1-yl)phenol]", "IC50": "1000 to 30000"},
      {"smiles": "N#Cc1cc(O)ccc1-c1ccc2c(cnn2-c2ccc(F)c(O)c2)c1", "note": "[Compound 5.07, 2-(1-(4-Fluoro-3-hydroxyphenyl)-1H-indazol-5-yl)-5-hydroxybenzonitrile]", "IC50": "100 to 1000"},
      {"smiles": "Cc1nn(-c2cc(C(F)(F)F)c(F)c(O)c2F)c2cc(F)c(N3CCOCC34CC4)cc12", "note": "[Compound 19.67, 2,6-Difluoro-3-(6-fluoro-3-methyl-5-(7-oxa-4-azaspiro[2.5]octan-4-yl)-1H-indazol-1-yl)-5-(trifluoromethyl)phenol]", "IC50": "< 100"},
      {"smiles": "Cc1nn(-c2cc(C(F)(F)F)c(F)c(O)c2F)c2cnc(N3CCN(S(=O)(=O)c4cnn(C)c4)CC3)cc12", "note": "[Compound 19.57, 2,6-Difluoro-3-(3-methyl-5-(4-((1-methyl-1H-pyrazol-4-yl)sulfonyl)piperazin-1-yl)-1H-pyrazolo[3,4-c]pyridin-1-yl)-5-(trifluoromethyl)phenol]", "IC50": "< 100"},
      {"smiles": "N#Cc1ccc(-c2ccc3c(cnn3-c3ccc(F)c(O)c3)c2)c(Cl)c1", "note": "[Compound 5.11, 3-Chloro-4-(1-(4-fluoro-3-hydroxyphenyl)-1H-indazol-5-yl)benzonitrile]", "IC50": "100 to 1000"}
    ]},
    {"biological_target": "Recombinant human HSD17B13 enzyme (Homo sapiens (Human), UniProt Q7Z5P4)", "experiment": "HSD17b13 NAD(P)H-Glo Biochemical Assay", "settings": "read-out: HSD17β13 inhibition at 10 uM", "description": "as §1, §2, §3", "units": {"inhibition at 10 µM": "%"}, "values": [
      {"smiles": "Cc1nc2cc(N3CCOCC34CC4)ncc2n1-c1cc(C(F)(F)F)c(F)c(O)c1F", "note": "[Compound 21.63, 2,6-Difluoro-3-(2-methyl-6-(7-oxa-4-azaspiro[2.5]octan-4-yl)-3H-imidazo[4,5-c]pyridin-3-yl)-5-(trifluoromethyl)phenol]", "inhibition at 10 µM": "< 20"},
      {"smiles": "CN(C)C(=O)C1CCN(c2ccc3c(cnn3-c3ccc(F)c(O)c3)c2)CC1", "note": "[Compound 20.04, 1-(1-(4-Fluoro-3-hydroxy-phenyl)-1H-indazol-5-yl)-N,N-dimethylpiperidine-4-carboxamide]", "inhibition at 10 µM": "< 20"}
    ]},
    {"biological_target": "Recombinant human HSD17B13 enzyme (Homo sapiens (Human), UniProt Q7Z5P4)", "experiment": "HSD17b13 NAD(P)H-Glo Biochemical Assay", "settings": "read-out: HSD17β13 inhibition at 30 uM", "description": "as §1, §2, §3", "units": {"inhibition at 30 µM": "%"}, "values": [
      {"smiles": "CS(=O)(=O)N1CCC(C(=O)O)(c2ccc3c(cnn3-c3cc(O)c(F)c(F)c3)c2)CC1", "note": "[Compound 28, 4-(1-(3,4-Difluoro-5-hydroxyphenyl)-1H-indazol-5-yl)-1-(methylsulfonyl)piperidine-4-carboxylic Acid]", "inhibition at 30 µM": 49},
      {"smiles": "CS(=O)(=O)N1CCN(c2cc3cn(-c4cc(O)cc(C#N)c4)nc3cn2)CC1", "note": "[Compound 19.35, 3-Hydroxy-5-(5-(4-(methylsulfonyl)piperazin-1-yl)-2H-pyrazolo[3,4-c]pyridine-2-yl)benzonitrile]", "inhibition at 30 µM": 49},
      {"smiles": "CS(=O)(=O)N1CCN(c2cc3cn(-c4cccc(O)c4C#N)nc3cn2)CC1", "note": "[Compound 19.40, 2-Hydroxy-6-(5-(4-(methylsulfonyl)piperazin-1-yl)-2H-pyrazolo[3,4-c]pyridine-2-yl)benzonitrile]", "inhibition at 30 µM": 39}
    ]},
    {"biological_target": "Recombinant human HSD17B13 enzyme (Homo sapiens (Human), UniProt Q7Z5P4)", "experiment": "HSD17b13 NAD(P)H-Glo Biochemical Assay", "settings": "read-out: HSD17β13 inhibition at 100 uM", "description": "as §1, §2, §3", "units": {"inhibition at 100 µM": "%"}, "values": [
      {"smiles": "CNC(=O)C1CCN(c2ccc3c(cnn3-c3ccc(F)c(O)c3)c2)CC1", "note": "[Compound 20.03, 1-(1-(4-Fluoro-3-hydroxy-phenyl)-1H-indazol-5-yl)-N-methylpiperidine-4-carboxamide]", "inhibition at 100 µM": 40},
      {"smiles": "CC(=O)N1CCN(c2ccc3c(cnn3-c3ccc(F)c(O)c3)c2)CC1", "note": "[Compound 20.05, 1-(4-(1-(4-Fluoro-3-hydroxyphenyl)-1H-indazol-5-yl)piperazin-1-yl)ethan-1-one]", "inhibition at 100 µM": "< 20"}
    ]}
  ]
}
